Laboratory results taken from patent US20110098219A1, “System for Curing Hepatic Cancer with Leptin” (KAOHSIUNG MEDICAL UNIVERSITY, priority 2009, published 2011).

What was measured:
Type in all cases: cell-based
JAK/STAT path = test: Western blotting of JAK/STAT path proteins in liver cancer cells; conditions: 10^-6 M U0126 for 4 hours, then MPA+leptin for 3 hours
Method: Please refer to FIG. 11, which is a view showing expression of JAK/STAT path after applied with a drug. As shown in the figure, the preferred embodiment analyzes related proteins of liver cancer cells through western blotting after applied with MPA+leptin for 24 hours.
(§1) Please refer to FIG. 13A and FIG. 13A, which are views showing expressions of proteins of JAK/STAT path and proteins of MAPK path after applied with a drug for a short time. As shown in the figures, the preferred embodiment processes liver cancer cells with high-dose leptin, high-dose MPA and high-dose leptin combined with high-dose MPA for 30 minutes. Then, related JAK/STAT proteins are collected for analyzing their expressions through western blotting.
Please refer to FIG. 14, which is a view showing reduced p-STAT3 degradation by suppressing the ERK1/2 activation and the PIAS3 expression. […] The preferred embodiment uses a 10^−6M p-ERK1/2 inhibitor (U0126) for 4 hours before a drug is applied; then, liver cancer cells are applied with the drug of MPA+leptin for 3 hours to collect cellular proteins for analyzing expression of related proteins through western blotting. […] As a conclusion, MPA activates ERK1/2 to indirectly induce PIAS3 expression for suppressing p-STAT3 (Tyr705) for cell apoptosis, where leptin enhances activation of ERK1/2 with MPA for increasing cell apoptosis.
(§2) Please refer to FIG. 15A to FIG. 16B, which are views showing cells containing very much leptin within; suppressed growth of the cells by using MPA; and STAT3- and MAPK-signal paths of the cells after MPA is applied. […] Then, after the cells are processed with 10^−4M MPA for 24 hours, cell growth is analyzed through XTT assay. […] Then, after the cells are processed with 10^−4 M MPA for 24 hours, JAK/STAT-related proteins are analyzed through western blotting.

MAPK path = test: Western blotting of MAPK path proteins in liver cancer cells; conditions: 10^-6 M U0126 for 4 hours, then MPA+leptin for 3 hours
Excerpt: Please refer to FIG. 12, which is a view showing expression of MAPK path after applied with a drug. As shown in the figure, after proteins for the JAK2/STAT3 path are suppressed, the preferred embodiment analyzes expression of the proteins through western blotting.
as §1
Please refer to FIG. 14, which is a view showing reduced p-STAT3 degradation by suppressing the ERK1/2 activation and the PIAS3 expression. […]
as §2

[1] = system: liver cancer cells (hepatocellular carcinoma cell line); test: XTT assay, growth of liver cancer cells; conditions: high-dose leptin (100 ng), 24 hours
Method: Please refer to FIG. 2, which is a view showing leptin's effect on growth of liver cancer cells. As shown in the figure, for acquiring effect of leptin on liver cancer cells, the preferred embodiment uses leptin having different doses, where the high-dose leptin has 100 nano-grams (ng) and the low-dose leptin has 10 ng. The 10 ng leptin is conformed to the physiological concentration of normal human body for observing effect of leptin on the cells. In the other hand, the 100 ng leptin is used to show whether a higher levels of leptin obtains a higher effect on the cells.
Please refer to FIG. 3, which is a view showing MPA's effect on growth of liver cancer cells. As shown in the figure, the preferred embodiment applies MPA having different doses to liver cancer cells.
Please refer to FIG. 4, which is a view showing effect of MPA+leptin on growth of liver cancer cells. As shown in the figure, the preferred embodiment applies MPA combined with leptin to liver cancer cells, where MPA has different doses and leptin has different doses.
Please refer to FIG. 9, which is a view showing reduced effect of MPA+leptin by suppressing leptin receptor expression. As shown in the figure, a 20 nano-moles (nM) of leptin receptor, siRNA, is transferred to cells to be cultured a day and is cultured in a serum-free medium for the next day. Then, the cells are processed with MPA+leptin for 24 hours to be analyzed through XTT assay. […] Thus, it is confirmed that leptin enhances MPA's suppression on the cells through the leptin receptor.
Please refer to FIG. 10A and FIG. 10B, which are views showing apoptosis of cells on increasing expression of leptin receptor and expression of progesterone receptor respectively. As shown in the figures, the preferred embodiment makes ob-Rb plasmid transfected to cells to be cultured a day and is cultured in a serum-free medium for the next day. Then, the cells are processed with MPA+leptin for 24 hours to be analyzed through XTT assay. […] Besides, the long-form Ob-R enhances expression of the progesterone receptor. Again, the preferred embodiment makes PgR plasmid transfected to cells to be cultured a day and is cultured in a serum-free medium for the next day. Then, the cells are processed with MPA+leptin for 24 hours to be analyzed through XTT assay.
Please refer to FIG. 15A to FIG. 16B, which are views showing cells containing very much leptin within; suppressed growth of the cells by using MPA; and STAT3- and MAPK-signal paths of the cells after MPA is applied. As shown in the figures, while leptin is added from outside in state 13 to suppress liver cancer cells with MPA+leptin, the preferred embodiment here transfers expression plasmid of leptin (pcLeptin) to liver cancer cells to be cultured for a day; and a serum-free medium is used for the next day. Then, after the cells are processed with 10^−4M MPA for 24 hours, cell growth is analyzed through XTT assay. In FIG. 15A, leptin gene is transferred to cells for a short time for obtaining very much leptin within the cells by themselves. After applying MPA to the cells for 24 hours, it is confirmed that MPA's suppression on liver cancer cells is enhanced by a lot of leptin self-generated within the cells. Moreover, after obtaining a lot of leptin, medium is collected for immunoprecipitation and further western blotting. […] Then, after the cells are processed with 10^−4 M MPA for 24 hours, JAK/STAT-related proteins are analyzed through western blotting.

[2] = system: epithelial cell line of normal liver (THLE-3); test: XTT assay, survival of normal liver epithelial cell line; conditions: THLE-3, FIG. 17A
Method: (§3) Please refer to FIG. 17A to FIG. 18B, which are views showing epithelial cell line of normal liver treated with MPA+leptin for 24 hours and 48 hours respectively; and views showing STAT3- and MAPK-related signal paths after treating cell line of normal liver with MPA+leptin. As shown in the figures, after epithelial cell line of normal liver (THLE-3) is applied with MPA+leptin for […], MPA+leptin's effect on cell growth (i.e. survival rate) is analyzed through XTT assay. […] Besides, in FIG. 18A and FIG. 18B, protein expressions for STAT- and MAPK-related signal paths are analyzed.

[3] = system: STAT- and MAPK-related signal paths; test: Protein expression of STAT- and MAPK-related signal paths in normal liver cell line
Method: as §3

Compound	expression of p-STAT3 (Tyr705) (JAK/STAT path)	PIAS3 (MAPK path)	phosphorylation of ERK1/2 (MAPK path)	effect on growth of liver cancer cells [1]	effect on survival rate of, and poisoning of, normal liver epithelial cells [2]	effect on STAT- and MAPK-related signal proteins [3]
N#CC(=C(/N)Sc1ccccc1N)/C(C#N)=C(\N)Sc1ccccc1N [U0126]	suppressed	not induced	suppressed			
leptin: hormone of single-chain protein; adipokine generated by adipocyte				no obvious effect	no obvious effect	no obvious effect
